This is an account of results in patent US5719130A, “Anthracycline derivative having a trifluoromethylated sugar” (Zaidan Hojin Biseibutsu Kagaku Kenkyu Kai, priority 1994, dated 1998).

SMILES strings stand for the structures. Values after ≈ are worked out from the molar mass of the structure shown.

Data set [1] deals with Leukemia L-1210 cells. Put plainly: Antitumor activity against leukemia L-1210 in CDF1 mice, 60-day observation (Test Example 1). Format: in vivo, mouse. The conditions noted are these: for % Increase in life-span (T/C, %): 9 days, 60 d observation, '>' = at least one of four mice survived 60 days. The method, then: Thus, to evaluate the antitumor effects of the new compounds of this invention against experimental tumors in animals, CDF1 mice (four mice per group) were intraperitoneally transplanted with cells of Leukemia L-1210 at an amount of 1×10^5 cells/mouse. Since an elapsed time of 24 hours from the transplantation of the leukemia cells, a test compound according to this invention was administered intraperitoneally to the mice under test for 9 consecutive days once per day. […] While, mice of the control group (the untreated group) were administered with only physiological saline after the transplantation of the L-1210 cells. During the observation period, the numbers of the surviving mice in the treated group and in the control group were counted, and the mean survival days of mice in the treated group and in the control group were then calculated. From the mean survival day (C) of the untreated mice of the control group and the mean survival day (T) of the treated mice of the treated group, there were evaluated percentages (%) of the increase in the life-span of the treated mice, as T/C %. For a comparison purpose, 7-O-(2,6-dideoxy-2-fluoro-α-L-talopyranosyl)daunomycinone (abbreviation: FT-DM); 7-O-(2,6-dideoxy-2-fluoro-α-L-talopyranosyl)adriamycinone (abbreviation: FT-ADM); daunomycin and adriamycin were also tested in the same manner as above. Incidentally, the mean survival day of mice of the control group (the untreated group) was amounting to 8 to 9 days, and the mean survival day of mice of the comparative groups having received the administration of adriamycin was varying dependently on the dosage of adriamycin.

For data set [2], the system named is Leukemia L-1210 cells. Put plainly: Antitumor activity against leukemia L-1210 in CDF1 mice, 30-day observation (Test Example 2). Format: in vivo, mouse. The conditions noted are these: 9 days, 30 d observation, '>' = at least one of four mice survived 30 days. The protocol:
Since an elapsed time of 24 hours from the transplantation of the leukemia cells, Compound (c) of this invention was administered intraperitoneally to the mice under test for 9 consecutive days once per day. […] While, mice of the control group (the untreated group) were administered with only physiological saline after the transplantation of the L-1210 cells. During the observation period, the numbers of the surviving mice in the treated group and the control group were counted, and the mean survival days of mice in the treated group and in the control group were then calculated. From the mean survival day (C) of the untreated mice of the control group and the mean survival day (T) of the treated mice of the treated group, there were evaluated percentages (%) of the increase in the life-span of the treated mice as T/C %. For a comparison purpose, adriamycin was also tested in the same manner as above.

The test system of the next data set is P388 cells. The data set is described as follows: In vitro inhibition of growth of P388 cells, 72 hours (Test Example 3). Format: cell-based, mouse. The note with it: Mus musculus, P388, 72 h. The method, then: (§1) Furthermore, in order to estimate the antitumor activities of Compound (a) and Compound (b) of this invention represented by the general formula (I), as well as the adriamycinone derivative represented by the formula (II) (namely, Compound (c) of this invention), some "in vitro" tests for inhibiting proliferation of cancer cells were conducted as shown below.
(§2) The above-mentioned Compound (a), Compound (b) or Compound (c) according to this invention were added at varying concentrations to mouse leukemia, P388 cells or adriamycin-resistant P388 cells (P388/ADR) which had been incubated in test tubes containing an appropriate culture medium. The incubation of the tumor cells were then continued for 72 hours from the addition of the test compound, and determination was made to evaluate such concentrations of the test compound which could inhibit the growth of the leukemia cells by 50% (namely, IC50' ng/ml). FT-DM, FT-ADM and adriamycin (as the hydrochloride) were used as comparative compounds and were tested in the same manner as above.

Data set [3] relates to adriamycin-resistant P388 cells (P388/ADR). The data set is described as follows: In vitro inhibition of growth of adriamycin-resistant P388 cells, 72 hours (Test Example 3). The format is cell-based, mouse. The note with it: Mus musculus; P388/ADR, 72 hours. The protocol:
as §1, §2

The conditions of data set [4]: clinical treatments, patients; cited from earlier work.

Consider `COc1cccc2c1C(=O)c1c(O)c3c(c(O)c1C2=O)C[C@@](O)(C(=O)CO)C[C@@H]3O[C@H]1C[C@H](N)[C@H](O)[C@H](C)O1` [Adriamycin, adriamycin], for which the “% Increase in life-span (T/C, %)” value with Leukemia L-1210 cells [1] (0.15 mg/kg/day i.p.) was found to be 140%; in the data set with Leukemia L-1210 cells [1] (0.3 mg/kg/day i.p.), 132%; in the data set on Leukemia L-1210 cells [1] (0.6 mg/kg/day i.p.) it was 208%; with Leukemia L-1210 cells [1] (1.25 mg/kg/day i.p.), 330%; with Leukemia L-1210 cells [1] (2.5 mg/kg/day i.p.), 273%; with Leukemia L-1210 cells [1] (5 mg/kg/day i.p.), 177%. Also, the “% Increase in life-span (T/C, %)” value in the data set with Leukemia L-1210 cells [2] (0.15 mg/kg/day i.p.) amounted to 140%; in the data set with Leukemia L-1210 cells [2] (0.3 mg/kg/day i.p.) it was 132%; with Leukemia L-1210 cells [2] (0.6 mg/kg/day i.p.) it was 208%; in the data set on Leukemia L-1210 cells [2] (1.25 mg/kg/day i.p.) it was 330%; with Leukemia L-1210 cells [2] (2.5 mg/kg/day i.p.) it was 273%; with Leukemia L-1210 cells [2] (5 mg/kg/day i.p.) it was 177%. For the same compound, the “percentages (%) of increase in life-span (T/C, %)” value in the data set with Leukemia L-1210 cells [1] (2.5 mg/kg/day to 5 mg/kg/day, about / approximately at maximum) is recorded as “approximately 330%”. For the same compound, in the data set with Leukemia L-1210 cells [1] (2.5 to 5 mg/kg/day for daunomycin, adriamycin, 0.3 to 1.25 mg/kg/day for Compound (b), low dosages for formula (I)), the “development of toxicity (in words)” value is recorded as “accompanied by development of toxicity”. For the same compound, the IC50 – broadly, the concentration needed to halve the response being measured – in the data set with P388 cells was found to be 0.017 µg/mL (≈ 0.0313 µM); in data set [3], 0.51 µg/mL (≈ 0.938 µM). The “serious side-effects (in words)” value in data set [4] is “serious side-effects such as leukocytopenia, alopecia, myocardiopathy and others”.
